Some test systems named below: NCI-H460 lung; HL-60(TB) leukemia; SNB-19 CNS; SF-268 CNS; K-562 leukemia; TK-10 renal; OVCAR-8 ovarian; SN12C renal; HCT-116 colon; NCI-H226 lung; HS 578T breast; HOP-92 NSCLC; SNB-75 CNS; RXF 393 renal; LOX IMVI melanoma; MALME-3M melanoma; U251 CNS; UO-31 renal.
What all share (assay): NCI anticancer screen, dose series, 48 h

Several values for one entry are separate records, joined by “and”; a condition that tells them apart may be missing. Equal values may be shown once.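 Exposure lasted 48 hours, with cells grown in 96-well plates and compounds tested at five concentrations. GI50 is the concentration that inhibits growth by half. At the TGI there is no net growth.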 A value given as a limit tells only on which side of the number the result lay.

Consider `CC1OC(OC2C(OC(=O)[C@]34CCC(C)(C)C[C@H]3C3=CC[C@@H]5[C@@]6(C)CC[C@H](OC7OC(CO)C(O)C(O)C7OC7OC(CO)C(O)C(O)C7O)C(C)(C)[C@@H]6CC[C@@]5(C)[C@]3(C)CC4)OCC(O)C2O)C(O)C(O)C1OC1OCC(O)C(OC2OCC(O)C(O)C2O)C1O` (stereo partly specified), for which the TGI in the test with NCI-H460 lung was 31.9 µM and 40.5 µM; in the test on HL-60(TB) leukemia, 4.15 µM and 7.43 µM; with SNB-19 CNS, 20.8 µM and 20.5 µM; with SF-268 CNS, 38.7 µM and 20.5 µM; in the test on K-562 leukemia, 18.8 µM and 17.6 µM; in the test with TK-10 renal it was 21.1 µM and 21.8 µM. Also, the TGI in the test with OVCAR-8 ovarian is 26.9 µM and 21.7 µM; with SN12C renal, 4.82 µM and 4.43 µM; with HCT-116 colon, 16.7 µM and 14 µM; in the test on NCI-H226 lung it was 13.9 µM and 12.4 µM; with HS 578T breast, 30.3 µM and 29.3 µM; in the test on HOP-92 NSCLC, 5.81 µM and 4.97 µM. The TGI was 17 µM and 20.8 µM in the test with SNB-75 CNS; 20.5 µM and 24.7 µM with RXF 393 renal; 24 µM and 23.6 µM in the test with LOX IMVI melanoma; 6.6 µM and 7.27 µM in the test with MALME-3M melanoma; 22.9 µM and 19.7 µM in the test with U251 CNS; 4.14 µM and 3.85 µM with UO-31 renal. In addition, the GI50 in the test with HL-60(TB) leukemia was 1 µM and 2.72 µM.

Consider `NC(N)=NS(=O)(=O)c1ccc(NNC(=O)c2cccc3c(=O)c4ccccc4[nH]c23)cc1`, for which the TGI with NCI-H460 lung is 49.1 µM; with HL-60(TB) leukemia, 62.1 µM; in the test with SNB-19 CNS, > 100 µM; with SF-268 CNS, > 100 µM; in the test with K-562 leukemia it was 53 µM; in the test on TK-10 renal it was 94 µM. Also, the TGI is 59.4 µM in the test with OVCAR-8 ovarian; > 100 µM in the test with SN12C renal; 59.5 µM in the test with HCT-116 colon; 67.2 µM in the test on NCI-H226 lung; > 100 µM with HS 578T breast; 79.6 µM in the test on HOP-92 NSCLC. Besides, the TGI in the test on SNB-75 CNS is > 100 µM; in the test with RXF 393 renal, 77.2 µM; in the test on LOX IMVI melanoma, 47.7 µM; in the test with MALME-3M melanoma it was 35.4 µM; with U251 CNS, > 100 µM; with UO-31 renal, 50.4 µM.

Take `CCc1cc2c(c3c1CCCC3)CC1(Cc3ccc(C(=O)OC)cc3C1)C2` (stereo unspecified): the TGI in the test on NCI-H460 lung was > 100 µM; with HL-60(TB) leukemia, 51.6 µM; in the test with SNB-19 CNS, > 100 µM; with SF-268 CNS, > 100 µM; in the test with K-562 leukemia, > 100 µM; with TK-10 renal it was > 100 µM. In addition, the TGI in the test on OVCAR-8 ovarian, with SN12C renal, in the test with HCT-116 colon, with NCI-H226 lung, in the test on HS 578T breast and in the test on HOP-92 NSCLC was > 100 µM throughout. The TGI in the test with SNB-75 CNS, in the test on RXF 393 renal, with LOX IMVI melanoma, with MALME-3M melanoma, in the test with U251 CNS and with UO-31 renal was > 100 µM throughout.

For `Cc1cc(S(=O)(=O)Nc2n[nH]c(Nc3ccc4ccccc4c3)n2)c(S)cc1Cl`, the TGI in the test on NCI-H460 lung, in the test with HL-60(TB) leukemia, with SNB-19 CNS, in the test with SF-268 CNS, in the test with K-562 leukemia and in the test with TK-10 renal was > 100 µM throughout. In addition, the TGI was > 100 µM in the test with OVCAR-8 ovarian; > 100 µM in the test with SN12C renal; > 100 µM in the test on HCT-116 colon; > 100 µM in the test with NCI-H226 lung; 69.9 µM in the test on HS 578T breast; > 100 µM in the test on HOP-92 NSCLC. The TGI in the test with SNB-75 CNS, in the test on RXF 393 renal, in the test on LOX IMVI melanoma, in the test on MALME-3M melanoma, with U251 CNS and in the test on UO-31 renal was > 100 µM each time.

As to `O=[N+]([O-])c1ccc(C2=NOC(c3ccc(Cl)cc3)N2C23CC4CC(CC(C4)C2)C3)cc1` (stereo unspecified), the TGI in the test on NCI-H460 lung, with HL-60(TB) leukemia, with SNB-19 CNS, with SF-268 CNS, in the test on K-562 leukemia and in the test with TK-10 renal was > 100 µM each time. In addition, the TGI with OVCAR-8 ovarian, in the test with SN12C renal, in the test with HCT-116 colon, in the test with NCI-H226 lung, in the test with HS 578T breast and in the test with HOP-92 NSCLC was > 100 µM each time. The TGI in the test with SNB-75 CNS is > 100 µM; with RXF 393 renal it was 9.89 µM; in the test with LOX IMVI melanoma it was > 100 µM; with MALME-3M melanoma, > 100 µM; with U251 CNS, > 100 µM; in the test with UO-31 renal, > 100 µM.

`COc1cc(/C=N/c2ccccn2)cc(OC)c1OC`: the TGI in the test on NCI-H460 lung, in the test with HL-60(TB) leukemia, with SNB-19 CNS, in the test with SF-268 CNS, in the test on K-562 leukemia and in the test with OVCAR-8 ovarian was > 100 µM in each case. The TGI in the test with SN12C renal, in the test on HCT-116 colon, in the test on NCI-H226 lung, in the test on HS 578T breast, in the test on HOP-92 NSCLC and in the test with SNB-75 CNS was > 100 µM throughout. For the same compound, the TGI in the test on RXF 393 renal, in the test on LOX IMVI melanoma, with MALME-3M melanoma, with U251 CNS and with UO-31 renal was > 100 µM in each case.

Take `CC1(C)S[C@H](CN)N[C@H]1C(=O)OC(c1ccccc1)c1ccccc1`: the TGI is 35.7 µM in the test with HL-60(TB) leukemia; > 100 µM in the test on SF-268 CNS; 55.8 µM with K-562 leukemia; > 100 µM in the test with TK-10 renal; > 100 µM in the test on OVCAR-8 ovarian; > 100 µM in the test on SN12C renal. For the same compound, the TGI with HCT-116 colon was > 100 µM; in the test on NCI-H226 lung, > 100 µM; in the test on HS 578T breast, > 100 µM; in the test on HOP-92 NSCLC, 91.6 µM; in the test with SNB-75 CNS it was > 100 µM; in the test with RXF 393 renal, > 100 µM. Also, the TGI was 33.8 µM in the test with LOX IMVI melanoma, 83.8 µM with MALME-3M melanoma, > 100 µM with U251 CNS and 92.6 µM in the test on UO-31 renal.

In the case of `CCN(CC)C(=S)SC1C(=O)NC(=O)NC1=O`, the TGI was 12.7 µM with NCI-H460 lung; > 100 µM in the test on HL-60(TB) leukemia; > 100 µM in the test on SF-268 CNS; > 100 µM in the test with K-562 leukemia; > 100 µM in the test on TK-10 renal; > 100 µM in the test on OVCAR-8 ovarian. In addition, the TGI with SN12C renal, with HCT-116 colon, in the test on NCI-H226 lung, in the test on HS 578T breast, with HOP-92 NSCLC and in the test with SNB-75 CNS was > 100 µM each time. The TGI in the test with RXF 393 renal, in the test with LOX IMVI melanoma, in the test on MALME-3M melanoma, in the test with U251 CNS and in the test on UO-31 renal was > 100 µM throughout.
